Calls of active or inactive are those of the source. The calls are words filed in the database; no cut-off is given here.

11 molecules from ChEMBL document CHEMBL3045056, “Structures and Biological Activities of Phytotoxins Produced by the Plant Pathogenic Fungus Bipolaris cynodontis cynA” (J Pestic Sci, 1998) can be followed below.

In one series the test system is Oryza sativa. Put plainly: Phytotoxicity in Oryza sativa (rice) seedlings assessed as assessed as inhibition of root growth at 100 ppm at 26 degC for 72 hr. It counts as functional, organism-based.
The test system of the next series is Lolium multiflorum. Put plainly: Phytotoxicity against Lolium multiflorum (Italian ryegrass) seedlings assessed as inhibition of root growth at 100 ppm at 26 degC for 72 hr. It counts as functional, organism-based.
Series [1] can be described thus: Octanol-water partition coefficient, log K of the compound by reversed-phase HPLC. Particulars: read-out: log K. The format is physicochemical.

On to `CC[C@H](C)[C@@H](O)[C@@H](C)C1=C(CC(C)=O)C(=O)C2=C(O[C@]3(C)CC[C@H]4O[C@@H](C(C)(C)O)CC[C@]4(C)[C@H]3[C@@H]2O)[C@]1(O)OC` [COCHLIOQUINOL III], for which the inhibition entry in the series on Oryza sativa and in the series with Lolium multiflorum was “Active” each time. For the same molecule, in series [1], the logP stood at 0.31.
Consider `CC[C@H](C)[C@@H](O)[C@@H](C)C1=CC(=O)C2=C(O[C@]3(C)CC[C@H]4O[C@@H](C(C)(C)O)CC[C@]4(C)[C@H]3[C@@H]2O)[C@]1(O)CC(C)=O` [COCHLIOQUINOL II], for which the inhibition result in the series with Oryza sativa and in the series on Lolium multiflorum was “Active” in each case. For the same molecule, the logP in series [1] was -0.05.
On to `CC[C@H](C)C(=O)[C@@H](C)C1=CC(=O)C2=C(O[C@]3(C)CC[C@H]4O[C@@H](C(C)(C)O)CC[C@]4(C)[C@H]3[C@@H]2O)[C@]1(O)CC(C)=O` [COCHLIOQUINOL], for which the inhibition result with Oryza sativa and in the series on Lolium multiflorum was “Active” in each case. Further, the logP in series [1] was -0.238.
Regarding `CC[C@H](C)[C@@H](OC(C)=O)[C@@H](C)C1=CC(=O)C2=C(O[C@]3(C)CC[C@H]4O[C@@H](C(C)(C)O)CC[C@]4(C)[C@H]3[C@@H]2O)C1=O` [COCHLIOQUINONE A], the inhibition entry with Oryza sativa and with Lolium multiflorum was “Active” throughout. In series [1], the logP amounted to 0.337.
Take `CC[C@H](C)C(=O)[C@@H](C)C1=CC(=O)C2=C(O[C@]3(C)CC[C@H]4O[C@@H](C(C)(C)O)CC[C@]4(C)[C@H]3C2)C1=O` [COCHLIOQUINONE B]: the inhibition result with Oryza sativa and in the series with Lolium multiflorum was “Active” in each case. Moreover, the logP in series [1] worked out at 0.437.
Regarding `CC[C@H](C)C(=O)[C@@H](C)C1=CC(=O)C2=C(O[C@]3(C)CC[C@H]4O[C@@H](C(C)(C)O)CC[C@]4(C)[C@H]3[C@@H]2O)C1=O` [COCHLIOQUINONE C], the inhibition entry in the series on Oryza sativa and in the series on Lolium multiflorum was “Active” each time. Also, the logP in series [1] came to 0.091.
As for `C/C=C(\C)C(=O)[C@@H](C)C1=CC(=O)C2=C(O[C@]3(C)CC[C@H]4O[C@@H](C(C)(C)O)CC[C@]4(C)[C@H]3C2)C1=O` [COCHLIOQUINONE D], the inhibition result with Oryza sativa and with Lolium multiflorum was “Active” in each case. Moreover, the logP in series [1] stood at 0.287.
For `CC[C@H](C)C(=O)[C@@H](C)C1=CC(=O)C2=C(O[C@]3(C)CC[C@H]4O[C@@H](C(C)(C)O)C[C@H](O)[C@]4(C)[C@H]3C2)C1=O` [COCHLIOQUINONE E], the inhibition result in the series on Oryza sativa and in the series with Lolium multiflorum was “Active” in each case. The logP in series [1] came to 0.013.
With `CC[C@H](C)[C@@H](OC(C)=O)[C@@H](C)c1cc(O)c2c(c1O)O[C@]1(C)CC[C@H]3O[C@@H](C(C)(C)O)CC[C@]3(C)[C@H]1C2=O` [ISOCOCHLIOQUINONE A], the inhibition result in the series on Oryza sativa and with Lolium multiflorum was “Active” throughout. Also, in series [1], the logP stood at 0.699.
With `CC[C@H](C)C(=O)[C@@H](C)c1cc(O)c2c(c1O)O[C@]1(C)CC[C@H]3O[C@@H](C(C)(C)O)CC[C@]3(C)[C@H]1C2=O` [ISOCOCHLIOQUINONE C], the inhibition result with Oryza sativa and with Lolium multiflorum was “Active” throughout. Moreover, the logP in series [1] turned out to be 0.482.
On to `C/C=C(\C)[C@@H](OC(C)=O)[C@@H](C)C1=CC(=O)C2=C(O[C@]3(C)CC[C@H]4O[C@@H](C(C)(C)O)CC[C@]4(C)[C@H]3[C@@H]2O)C1=O` [STEMPHONE], for which the inhibition entry in the series on Oryza sativa and in the series with Lolium multiflorum was “Active” each time. Further, the logP in series [1] was 0.224.
